Experimental data reported in patent US20160008297A1, “COMPOUNDS FOR PREVENTING, REDUCING AND/OR ALLEVIATING ITCHY SKIN CONDITION(S)” (B.R.A.I.N. Biotechnology Research And Information Network AG, priority 2012, published 2016).

Biological target: T1, PAR-2 (Homo sapiens, UniProt P55085)
T1 construct: Human embryonic kidney 293 cells (HEK293) endogenously expressing PAR-2; endogenous in cells; host or cells: HEK293
T1 sequence (P55085 26-397): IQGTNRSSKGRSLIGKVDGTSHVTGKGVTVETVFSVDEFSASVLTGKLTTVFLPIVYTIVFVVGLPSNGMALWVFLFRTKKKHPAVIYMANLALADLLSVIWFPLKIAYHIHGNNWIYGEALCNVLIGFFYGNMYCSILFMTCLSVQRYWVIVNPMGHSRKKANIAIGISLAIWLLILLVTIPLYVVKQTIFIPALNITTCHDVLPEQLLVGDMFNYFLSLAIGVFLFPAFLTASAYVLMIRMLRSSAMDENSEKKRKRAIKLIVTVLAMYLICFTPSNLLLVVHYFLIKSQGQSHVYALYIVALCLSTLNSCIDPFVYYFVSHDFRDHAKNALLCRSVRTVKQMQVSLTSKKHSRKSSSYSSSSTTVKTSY
Experiment: Cell-based calcium assay (Fluo-4 AM) for PAR-2 antagonists, SLIGRL-evoked signal
Conditions: in the presence of 2 μM SLIGRL, HEK293 cells; read-out: IC50 of PAR-2 antagonism (inhibition of SLIGRL induced PAR-2 activation)
Protocol: Cell-based calcium assay for the identification of PAR-2 antagonists based on fluorescent dye Fluo4-AM
Functional modulation of PAR-2 by the tested compounds was measured and quantified using the calcium sensitive fluorescent probe Fluo-4 AM on a fluorescence microplate reader. Activation of PAR-2 by an agonist (SLIGRL) led to an increase in the intracellular calcium concentration and thus an increase in fluorescence intensity.
Human embryonic kidney 293 cells (HEK293) endogenously expressing PAR-2 were cultured in DMEM (high glucose) supplemented with tetracycline-free FCS (10% v/v), L-glutamine (4 mM), blasticidin (15 μg/ml), zeocin (100 μg/ml) and puromycin (2 μg/ml) in a water-saturated atmosphere at 37° C. and 5% CO2.
Cells were seeded onto 96-well clear-bottom black-walled assay plates at a density of 45,000 cells per well in 100 μl of cell culture medium. Intracellular calcium increase in the living cells due to receptor activation was monitored 24 h later using the calcium sensitive fluorescent probe Fluo-4 AM on a fluorescence microplate reader (FlexStation® system, Molecular Devices). Therefore 100 μl Krebs-HEPES (KH) buffer (118 mM NaCl; 4.7 mM KCl; 1.3 mM CaCl2; 1.2 mM MgSO4; 1.2 mM KH2PO4; 4.2 mM NaHCO3; 10 mM Hepes, pH 7.4) supplemented with sulfinpyrazone (250 μM) and Fluo-4 AM (4 μM) were added and the cells were incubated for an additional hour in a water-saturated atmosphere at 37° C. and 5% CO2.
Medium was replaced with 150 μl KH buffer supplemented with sulfinpyrazone (250 μM). Subsequently, 50 μl KH buffer supplemented with the screening compounds (final concentration of 10 μM under measurement conditions) or control substances were added and the cells were incubated for 10 min. under assay conditions in the microplate reader. Changes in fluorescence were recorded at 37° C. after addition of 50 μl KH buffer supplemented with the PAR-2 peptide agonist SLIGRL (final concentration of 2 μM under measurement conditions).
Calcium mobilization was quantified as the change of peak fluorescence (ΔF) over the baseline level (F). The data was analyzed with the software of the microplate reader. Potential PAR-2 antagonists were tested in an effective range of 1-100 μM for their capacity to reduce the SLIGRL-evoked signal.
A cellular in vitro assay was developed with human embryonic kidney 293 cells (HEK293) endogenously expressing PAR-2. The PAR-2 activating peptide SLIGRL (EC50: ˜0.6 μM) was used as an agonistic stimulus with subsequent Fluo-4 dependent intracellular calcium detection (calcium imaging).

IC50 [µM]	Compound
67.8	COc1ccc(CCC(=O)CC(=O)CCc2ccc(OC)cc2)cc1 [formula 3, 1,7-Bis-(4-methoxyphenyl)-3,5-heptanedione]
25 to 100	COc1ccc(/C=C/C(=O)CC(=O)/C=C/c2ccc(OC)cc2)cc1 [formula 7, 1,7-Bis-(4-methoxyphenyl)-hepta-1,6-dien-3,5-dione]
25 to 100	COc1cc(/C=C/C(=O)CC(=O)/C=C/c2ccc(O)c(OC)c2)ccc1O [formula 8, 1,7-Bis-(4-hydroxy-3-methoxyphenyl)-hepta-1,6-dien-3,5-dione]

Compound	IC50 [µM]
COc1cc(CCC(=O)CC(=O)CCc2ccc(O)c(OC)c2)ccc1O [formula 4, 1,7-Bis-(4-hydroxy-3-methoxyphenyl)-3,5-heptanedione]	25 to 100
